Where a SMILES comes first, the peptide text is derived from it. Bridges are numbered along the chain shown (N, C = ends). Triazole bridges read from a SMILES are 1,4-linked. [ ]: non-standard residue; d: D form. The star is where a group is joined. Biotinyl(3aR,4R,6aS) = O=C1N[C@@H]2[C@@H](CS[C@@H]2CCCCC(=O)*)N1; Biotin = O=C1N[C@H]2[C@H](CS[C@H]2CCCCC(=O)*)N1; Trp(1-Me) = Cn1cc(C[C@H](N)C(=O)O)c2ccccc21; Lys(N3) = [N-]=[N+]=NCCCC[C@H](N)C(=O)O; Phe(4-F) = N[C@@H](Cc1ccc(F)cc1)C(=O)O; AEEEA = NCCOCCOCCOCC(=O)O; Pra = C#CC[C@H](N)C(=O)O
Biological target: T1, His-tagged IDO1 human recombinant protein (Homo sapiens, UniProt P14902)
T1 construct: purchased BPS Biosciences 71182
T1 sequence (P14902 whole entry): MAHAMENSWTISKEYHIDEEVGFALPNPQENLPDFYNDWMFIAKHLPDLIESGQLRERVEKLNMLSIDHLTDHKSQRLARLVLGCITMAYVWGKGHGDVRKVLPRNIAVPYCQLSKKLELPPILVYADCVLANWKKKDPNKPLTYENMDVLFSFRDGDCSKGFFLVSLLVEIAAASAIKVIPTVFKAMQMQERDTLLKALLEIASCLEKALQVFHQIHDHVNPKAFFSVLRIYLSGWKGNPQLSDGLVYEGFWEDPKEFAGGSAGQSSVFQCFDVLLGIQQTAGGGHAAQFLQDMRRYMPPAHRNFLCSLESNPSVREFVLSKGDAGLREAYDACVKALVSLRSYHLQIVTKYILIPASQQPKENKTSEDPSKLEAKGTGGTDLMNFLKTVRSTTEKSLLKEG
Assay: IDO1 ELISA (affinity assay), sandwich ELISA with immobilized biotinylated macrocycle
Assay type: binding
Settings: for EC50: biotin-PEG3-modified macrocycle immobilized on NeutrAvidin plate (2 μM coating), His-tagged human IDO1 200 to 0 nM
Procedure: A black 96-well NeutrAvidin Coated High Binding Capacity plate (15510, Pierce) was coated with 2 μM biotinylated macrocyclic peptide ligand in TBS (25 mM Tris-HCl, 150 mM NaCl, pH 7.6) for 2 h at room temperature. The plate was aspirated and then washed with Wash Buffer (0.05% (v/v) Tween-20 in PBS, 6×). His-tagged IDO1 human recombinant protein (71182, BPS Biosciences) was serially diluted in Wash Buffer (from 200 to 0 nM) and incubated in the designated microwells for 1 h at room temperature. Microwells were aspirated and subsequently washed with Wash Buffer (11×). To detect the bound IDO1 protein, Alkaline Phosphatase (AP)-conjugated Anti-6×His Tag® antibody [HIS-1] (ab49746, Abcam) was prepared at 1:10,000 dilution and added to the microwells for 1 h at room temperature. The plate was aspirated and washed with Wash Buffer (5×). AttoPhos® AP Fluorescent Substrate System (S1000, Promega) was employed to develop the microwells. Using an excitation wavelength of 430 nm, fluorescent emission at 535 nm was recorded by Beckman Coulter DTX880 photometer. Titration curves were fit using a four-parameter regression curve fitting program to determine EC50 values.
The binding affinities of biotin-PEG3-modified macrocyclic peptide ligands were tested in an ELISA format. For these assays, a dilution series of His-tagged IDO1 human recombinant protein was captured using the macrocyclic peptide ligands immobilized on a NeutrAvidin-coated plate. […] The sequences of the peptide ligands are listed in Table 1, where D-amino acids are denoted in lowercase, Me-Trp=1-methyl-L-tryptophan, and F-Phe=4-fluoro-L-phenylalanine.
The D-alanine substituted, biotin-PEG3-modified macrocycles were tested in the IDO1 ELISA (Affinity assay). For these assays, a dilution series of His-tagged IDO1 human recombinant protein was captured using macrocycles immobilized on a NeutrAvidin-coated plate.

[1] = alanine scan and 3-mer/4-mer variants, biotin-PEG3-modified, FIGS. 15-18

| SMILES | EC50 [µM] | Binding affinity to human IDO1 relative to parent macrocycle or sibling variants (in words) [1] | further results |
| --- | --- | --- | --- |
| Cn1cc(C[C@@H]2NC(=O)[C@@H](CCCNC(=N)N)NC(=O)[C@@H](Cc3ccccc3)NC(=O)[C@@H](CO)NC(=O)[C@@H](CC(N)=O)NC(=O)[C@@H](NC(=O)COCCOCCOCCNC(=O)CCCC[C@@H]3SC[C@@H]4NC(=O)N[C@@H]43)Cc3cn(nn3)CCCC[C@@H](C(N)=O)NC2=O)c2ccccc21 [biotin-PEG3-Cy(nsfr(Me-Trp))] ({Biotin-AEEEA}-[Pra][dN][dS][dF][dR][Trp(1-Me)][Lys(N3)]-NH2; triazole 1-7) | 0.124 | – | – |
| CC(C)C[C@H]1NC(=O)[C@@H](Cc2ccc(O)cc2)NC(=O)[C@@H](Cc2ccccc2)NC(=O)[C@@H](Cc2ccccc2)NC(=O)[C@@H](CCCNC(=N)N)NC(=O)[C@@H](NC(=O)COCCOCCOCCNC(=O)CCCC[C@@H]2SC[C@@H]3NC(=O)N[C@@H]32)Cc2cn(nn2)CCCC[C@@H](C(N)=O)NC1=O [biotin-PEG3-Cy(rffyl)] ({Biotin-AEEEA}-[Pra][dR][dF][dF][dY][dL][Lys(N3)]-NH2; triazole 1-7) | 0.125 | – | – |
| C[C@H]1NC(=O)[C@@H](Cc2ccccc2)NC(=O)[C@@H](CCCNC(=N)N)NC(=O)[C@@H](Cc2ccccc2)NC(=O)[C@@H](NC(=O)COCCOCCOCCNC(=O)CCCC[C@@H]2SC[C@@H]3NC(=O)N[C@@H]32)Cc2cn(nn2)CCCC[C@@H](C(N)=O)NC(=O)[C@@H](CO)NC1=O [frfas, Biotin-PEG3-Cy(frfas)] ({Biotin-AEEEA}-[Pra][dF][dR][dF][dA][dS][Lys(N3)]-NH2; triazole 1-7) | – | weakest binding to IDO1 | – |
| CC(C)C[C@H]1NC(=O)[C@@H](NC(=O)COCCOCCOCCNC(=O)CCCC[C@H]2SC[C@H]3NC(=O)N[C@H]32)Cc2cn(nn2)CCCC[C@@H](C(N)=O)NC(=O)[C@H](Cc2ccc(F)cc2)NC(=O)[C@H](Cc2cn(C)c3ccccc23)NC(=O)[C@@H](Cc2ccccc2)NC1=O [lf(Me-Trp)(F-Phe), Biotin-PEG3-Cy(lf(Me-Trp)(F-Phe))] ({Biotinyl(3aR,4R,6aS)-AEEEA}-[Pra][dL][dF][Trp(1-Me)][Phe(4-F)][Lys(N3)]-NH2; triazole 1-6) | – | slight decrease in binding affinity | – |
| NC(=O)[C@@H]1CCCCn2cc(nn2)C[C@H](NC(=O)COCCOCCOCCNC(=O)CCCC[C@@H]2SC[C@@H]3NC(=O)N[C@@H]32)C(=O)N[C@H](CO)C(=O)N[C@H](Cc2c[nH]c3ccccc23)C(=O)N[C@H](Cc2c[nH]c3ccccc23)C(=O)N[C@@H](Cc2ccc(F)cc2)C(=O)N1 [sww(F-Phe), Biotin-PEG3-Cy(sww(F-Phe))] ({Biotin-AEEEA}-[Pra][dS][dW][dW][Phe(4-F)][Lys(N3)]-NH2; triazole 1-6) | – | – | Maximum ELISA signal for human IDO1 binding (in words) [1]: superior to the other 4-mers generated |
| N=C(N)NCCC[C@H]1NC(=O)[C@@H](Cc2ccc(O)cc2)NC(=O)[C@@H](Cc2c[nH]c3ccccc23)NC(=O)[C@@H](NC(=O)COCCOCCOCCNC(=O)CCCC[C@H]2SC[C@H]3NC(=O)N[C@H]32)Cc2cn(nn2)CCCC[C@@H](C(N)=O)NC(=O)[C@@H](Cc2ccc(O)cc2)NC1=O [wyry, Biotin-PEG3-Cy(wyry)] ({Biotinyl(3aR,4R,6aS)-AEEEA}-[Pra][dW][dY][dR][dY][Lys(N3)]-NH2; triazole 1-6) | – | best affinity among the 4-mer macrocycles | – |

Continued, in another order:

| EC50 [µM] | SMILES | Binding affinity to human IDO1 relative to parent macrocycle or sibling variants (in words) [1] | further results |
| --- | --- | --- | --- |
| 0.02 | Cn1cc(C[C@@H]2NC(=O)[C@@H](Cc3ccccc3)NC(=O)[C@@H](CCCNC(=N)N)NC(=O)[C@@H](Cc3ccccc3)NC(=O)[C@@H](NC(=O)COCCOCCOCCNC(=O)CCCC[C@@H]3SC[C@@H]4NC(=O)N[C@@H]43)Cc3cn(nn3)CCCC[C@@H](C(N)=O)NC(=O)[C@@H](CO)NC2=O)c2ccccc21 [biotin-PEG3-Cy(frf(Me-Trp)s)] ({Biotin-AEEEA}-[Pra][dF][dR][dF][Trp(1-Me)][dS][Lys(N3)]-NH2; triazole 1-7) | – | – |
| 0.025 | C[C@H]1NC(=O)[C@@H](CCCNC(=N)N)NC(=O)[C@@H](Cc2ccc(O)cc2)NC(=O)[C@@H](Cc2c[nH]c3ccccc23)NC(=O)[C@@H](NC(=O)COCCOCCOCCNC(=O)CCCC[C@@H]2SC[C@@H]3NC(=O)N[C@@H]32)Cc2cn(nn2)CCCC[C@@H](C(N)=O)NC(=O)[C@@H](Cc2ccc(O)cc2)NC1=O [biotin-PEG3-Cy(wyray)] ({Biotin-AEEEA}-[Pra][dW][dY][dR][dA][dY][Lys(N3)]-NH2; triazole 1-7) | – | – |

From patent US11884707B2, “Compositions for detection, inhibition and imaging of indoleamine 2, 3-dioxygenase 1 (IDO1) and methods of making and using same” (Regeneron Pharmaceuticals, Inc., priority 2016, dated 2024)
